In article PMC3702004, “Comparison of Intake and Systemic Relative Effect Potencies of Dioxin-like Compounds in Female Mice after a Single Oral Dose” (Environmental Health Perspectives, 2013):
Like-named read-outs stand apart in the source and are kept apart here.

Tests used:
Cyp1b1 mRNA in PBLs = experiment: Cyp1b1 gene expression in peripheral blood lymphocytes; format: in vivo, female C57BL/6 mice; settings: for BMR20TCDD PBLs Cyp1b1 mRNA: 3 days after single oral dose; for REP PBLs Cyp1b1 mRNA: relative to TCDD; for Effect on Cyp1b1 mRNA in PBLs: single oral dose, day 3
Description: (§1) Animals. Eight-week-old female C57BL/6 mice (Harlan laboratories, Venray, the Netherlands) were randomly assigned to treatment groups (six animals per group) and allowed to acclimate for 1.5 weeks. The animals were housed in groups in standard cages and conditions (23 ± 2°C, 50–60% relative humidity, 12-hr dark/light cycle) with free access to food and water. Mice received a single dose of test compound by oral gavage at a dosing volume of 10 mL/kg body weight (BW). Mice treated with corn oil vehicle (10 mL/kg BW) served as controls. For each congener, five different doses were administered, ranging from 0.5–100 μg/kg BW (TCDD) to 5,000–500,000 µg/kg BW (PCB-153). Detailed information on doses is provided in Supplemental Material, Table S1 (http://dx.doi.org/10.1289/ehp.1206336). On day 3 after dosing, animals were euthanized by CO2/O2 asphyxiation, and blood was immediately collected from the abdominal aorta. The liver, thymus, spleen, and adipose tissue were removed, weighed (liver, thymus, and spleen), snap frozen, and stored at –80°C. All animal treatments were performed with permission of the Animal Ethical Committee (DEC Utrecht) and performed according to the [Law on Animal Experiments (1977)]. Animals were treated humanely and with regard for alleviation of suffering.
(§2) Plasma and PBL isolation. Blood from two mice was pooled (total volume of approximately 1.4 mL); plasma and PBLs were then isolated using Ficoll Paque gradient (GE Healthcare Europe, Diegem, Belgium). Plasma samples were stored at –80°C until compound analysis. Isolated lymphocytes were lysed with RLT buffer (QIAGEN, Venlo, the Netherlands) as described in the QIAGEN RNAeasy kit protocol and stored at –80°C until use.
RNA isolation and quantitative real-time polymerase chain reaction (PCR). Total RNA was isolated from liver and PBLs using a QIAGEN RNeasy kit (QIAGEN). Purity and concentration of the isolated RNA was determined by measuring the absorbance ratio at 260/280 nm and 230/260 nm with a Nanodrop 2000 spectrophotometer (Thermo Scientific, Asheville, NC, USA). RNA was reverse transcribed to complementary DNA (cDNA) using the iScript cDNA synthesis Kit (Bio-Rad, Veenendaal, the Netherlands). Quantitative real-time PCR analyses were performed using the iQ Real-Time PCR Detection System with SYBR green (Bio-Rad). Amplification reactions were set up with […] containing 12.5 μL iQ SYBR Green Supermix (Bio-rad), 0.5 μL distilled H2O, 1 μL (10 μM) forward primer, 1 μL (10 μM) reverse primer, and 10 μL first strand cDNA (10X diluted). Primer sequences were as follows: Cyp1a1: forward-5´-GGTTAACCATGACCGGGAACT-3´ and reverse-5´-TGCCCAAACCAAAGAGAGTGA-3´ ([Schulz et al. 2012]); Cyp1a2: forward-5´-ACATTCCCAAGGAGCGCTGTATCT-3´ and reverse-5´-GTCGATGGCCGAGTTGTTATTGGT-3´ ([Flaveny et al. 2010]); Cyp1b1: forward-5´-GTGGCTGCTCATCCTCTTTACC-3´ and reverse-5´-CCCACAACCTGGTCCAACTC-3´ ([Berge et al. 2004]); β-actin: forward-5´-ATGCTCCCCGGGCTGTAT-3´ and reverse-5´-CATAGGAGTCCTTCTGACCCATTC-3´ ([Schulz et al. 2012]). All primers were run through the National Center for Biotechnology Information Primer-BLAST database (http://www.ncbi.nlm.nih.gov/tools/primer-blast/) to confirm specificity and validate for optimal annealing temperature (60°C for all primers) and efficiency. The efficiency of all primer pairs was 98–102% (tested at 60°C). The following program was used for denaturation and amplification of cDNA: 3 min at 95°C, followed by 40 cycles of 15 sec at 95°C and 45 sec at 60°C. Gene expression for each sample was expressed as threshold cycle (Ct), normalized to the reference gene β-actin (ΔCt). We calculated fold induction relative to the control group.
Data analysis. We obtained concentration–response curves using a sigmoidal dose–response nonlinear regression curve fit with variable slope (GraphPad Prism 6.01; GraphPad Software Inc., San Diego, CA, USA): […]

[1] = Compound analysis: liver, adipose and plasma concentrations 3 days after a single oral dose; format: in vivo, female C57BL/6 mice; settings: for liver:adipose ratio (hepatic sequestration criterion 0.3) / concentration at 3 days / Adipose % dose / g tissue / Adipose concentration / Liver % dose / g tissue / Liver concentration / Plasma % dose / g tissue / Plasma concentration: 3 days after single oral dose; for liver:adipose ratio (hepatic sequestration criterion 0.3): Table 1 doses; for Liver:adipose ratio: based on ng/g tissue, day 3; for concentration at 3 days: female, C57BL/6, mouse, in vivo, po
Description: as §1
Compound analysis. Adipose and liver tissues samples were homogenized in Na2SO4, followed by extraction and clean-up in one step, and then eluted with 200 mL 1:1 hexane:dichloromethane on an open column packed with 40% wt/wt H2SO4-impregnated silica and KOH-silica. Blood plasma samples were extracted on an open column using Chem-Elut (Agilent Technologies, Santa Clara, CA, USA) and then NaCl eluted with 75 mL 3:2 hexane:2-propanol. Clean-up was performed using a miniaturized silica column (as described above), and samples were eluted using 30 mL hexane. Because the samples typically contained high levels of the analytes, only a small fraction was evaporated and analyzed. Prior to evaporation, we spiked a fraction of the samples with ^13C-labeled standards. We checked potential loss of analytes during extraction and clean-up by reextracting the samples using the identical protocol used for the samples. […] Tetradecane was added prior to evaporation. Sample analysis followed the U.S. Environmental Protection Agency Method 1613 ([U.S. Environmental Protection Agency 1994]) using single ion monitoring mode on an Agilent 6809N gas chromatograph (Agilent Technologies) coupled with a Micromass Ultima Autospec Ultra high-resolution mass spectrometer (HRMS; Waters Corp., Milford, MA, USA). Compounds were separated on a 60 m × 0.25 mm DB5-MS column ([…]; J&W Scientific, Folsom, CA, USA). The HRMS was operated with electron impact ionization with electron energy of 35 eV and an ion source temperature of 250°C. To reduce the number of analyses, samples were pooled before clean-up. […] This method was used because full congener–specific separation could be achieved on the high-resolution GC–HRMS. For lipid determination, samples were evaporated to dryness after the extraction step, and the amount of lipids was determined gravimetrically. Concentrations were calculated based on lipid weight and wet weight. The analysis of samples for the PCB-118 5,000 μg/kg BW dose failed during the procedure; thus analysis for this group could not be completed.
as §2

[2] = toxic equivalency factor relative to TCDD; ref Van den Berg et al. 2006; cited from earlier work

Clc1cc2c(cc1Cl)Oc1c(cc(Cl)c(Cl)c1Cl)O2 [PeCDD, 1,2,3,7,8-pentachlorodibenzodioxin]
BMR20TCDD PBLs Cyp1b1 mRNA (Cyp1b1 mRNA in PBLs; dose metric Adm dose): 51.8 µg/kg BW | BMR20TCDD PBLs Cyp1b1 mRNA (Cyp1b1 mRNA in PBLs; dose metric Syst plasma): 63.8 ng/g lipid | REP PBLs Cyp1b1 mRNA (Cyp1b1 mRNA in PBLs; dose metric Adm dose (µg/kg BW)): 0.4 | REP PBLs Cyp1b1 mRNA (Cyp1b1 mRNA in PBLs; dose metric Syst plasma (ng/g lipid)): 0.8 | Effect on Cyp1b1 mRNA in PBLs (Cyp1b1 mRNA in PBLs): dose-dependently induced | liver:adipose ratio (hepatic sequestration criterion 0.3) [1]: > 0.3 | Liver:adipose ratio ([1]; dose 0.5 μg/kg BW): 4.4±0.9 | Liver:adipose ratio ([1]; dose 2.5 μg/kg BW): 7.0±1.1 | Liver:adipose ratio ([1]; dose 10 μg/kg BW): 6.7±1.4 | concentration at 3 days ([1]; 0.5 µg/kg bw, oral dose 0.5 µg/kg bw, read-out: Adipose concentration): 0.9 ± 0.2 ng/g | concentration at 3 days ([1]; 0.5 µg/kg bw, oral dose 0.5 µg/kg bw, read-out: Liver concentration): 4 ± 0.7 ng/g | concentration at 3 days ([1]; 2.5 µg/kg bw, oral dose 2.5 µg/kg bw, read-out: Adipose concentration): 3.8 ± 0.7 ng/g | concentration at 3 days ([1]; 2.5 µg/kg bw, oral dose 2.5 µg/kg bw, read-out: Liver concentration): 27 ± 6 ng/g | concentration at 3 days ([1]; 10 µg/kg bw, oral dose 10 µg/kg bw, read-out: Adipose concentration): 16 ± 5 ng/g | concentration at 3 days ([1]; 10 µg/kg bw, oral dose 10 µg/kg bw, read-out: Liver concentration): 103 ± 23 ng/g | concentration at 3 days ([1]; 10 µg/kg bw, oral dose 10 µg/kg bw, read-out: Plasma concentration): 0.032 ng/g | concentration at 3 days ([1]; 25 µg/kg bw, oral dose 25 µg/kg bw, read-out: Plasma concentration): 0.052 ng/g | concentration at 3 days ([1]; 100 µg/kg bw, oral dose 100 µg/kg bw, read-out: Plasma concentration): 0.298 ng/g | Adipose % dose / g tissue ([1]; oral dose 0.5 µg/kg bw): 9.3 % dose / g tissue | Adipose concentration ([1]; oral dose 0.5 µg/kg bw): 1.1 ± 0.2 ng/g lipid | Liver % dose / g tissue ([1]; oral dose 0.5 µg/kg bw): 40 % dose / g tissue | Liver concentration ([1]; oral dose 0.5 µg/kg bw): 85 ± 14 ng/g lipid | Plasma % dose / g tissue ([1]; oral dose 0.5 µg/kg bw): 0.037 % dose / g tissue | Adipose % dose / g tissue ([1]; oral dose 2.5 µg/kg bw): 7.7 % dose / g tissue | Adipose concentration ([1]; oral dose 2.5 µg/kg bw): 4.3 ± 0.8 ng/g lipid | Liver % dose / g tissue ([1]; oral dose 2.5 µg/kg bw): 54 % dose / g tissue | Liver concentration ([1]; oral dose 2.5 µg/kg bw): 446 ± 96 ng/g lipid | Plasma % dose / g tissue ([1]; oral dose 2.5 µg/kg bw): 0.024 % dose / g tissue | Adipose % dose / g tissue ([1]; oral dose 10 µg/kg bw): 8.0 % dose / g tissue | Adipose concentration ([1]; oral dose 10 µg/kg bw): 19 ± 6 ng/g lipid | Liver % dose / g tissue ([1]; oral dose 10 µg/kg bw): 51 % dose / g tissue | Liver concentration ([1]; oral dose 10 µg/kg bw): 1669 ± 378 ng/g lipid | Plasma % dose / g tissue ([1]; oral dose 10 µg/kg bw): 0.016 % dose / g tissue | Plasma concentration ([1]; oral dose 10 µg/kg bw): 19 ± 7 ng/g lipid | Plasma % dose / g tissue ([1]; oral dose 25 µg/kg bw): 0.010 % dose / g tissue | Plasma concentration ([1]; oral dose 25 µg/kg bw): 30 ± 2 ng/g lipid | Plasma % dose / g tissue ([1]; oral dose 100 µg/kg bw): 0.015 % dose / g tissue | Plasma concentration ([1]; oral dose 100 µg/kg bw): 157 ± 21 ng/g lipid | WHO-TEF [2]: 1

Clc1ccc(-c2cc(Cl)c(Cl)cc2Cl)cc1Cl [PCB-118, 2,3´,4,4´,5-pentachlorobiphenyl]
Effect on Cyp1b1 mRNA in PBLs (Cyp1b1 mRNA in PBLs): did not induce | liver:adipose ratio (hepatic sequestration criterion 0.3) [1]: < 0.3 | Liver:adipose ratio ([1]; dose 15,000 μg/kg BW): 0.08±0.01 | Liver:adipose ratio ([1]; dose 50,000 μg/kg BW): 0.07±0.02 | Adipose % dose / g tissue ([1]; oral dose 15000 µg/kg bw): 32 % dose / g tissue | Liver % dose / g tissue ([1]; oral dose 15000 µg/kg bw): 2.6 % dose / g tissue | Plasma % dose / g tissue ([1]; oral dose 15000 µg/kg bw): 0.054 % dose / g tissue | Adipose % dose / g tissue ([1]; oral dose 50000 µg/kg bw): 33 % dose / g tissue | Liver % dose / g tissue ([1]; oral dose 50000 µg/kg bw): 2.2 % dose / g tissue | Plasma % dose / g tissue ([1]; oral dose 50000 µg/kg bw): 0.067 % dose / g tissue | Liver % dose / g tissue ([1]; oral dose 150000 µg/kg bw): 2.2 % dose / g tissue | Plasma % dose / g tissue ([1]; oral dose 150000 µg/kg bw): 0.062 % dose / g tissue | Plasma % dose / g tissue ([1]; oral dose 500000 µg/kg bw): 0.05 % dose / g tissue | WHO-TEF [2]: 0.00003
